Patent publication US20260284079A1, “LIPID PRODRUGS OF ALLOPR[…] USES THEREOF” (Seaport Therapeutics, Inc., priority 2023, published 2026)

Legend:
Assay type in all cases: in vivo, human
[1] = Stanford Sleepiness Scale (SSS) and MOAA/S
Excerpt: Part 1 Exploratory Objectives: To characterize the pharmacodynamic (PD) effects, and the PK/PD relationship, of Compound 1 on select clinical outcome assessments (COAs) of central nervous system effects following ascending single oral doses of Compound 1 (e.g., Stanford Sleepiness Scale (SSS), Modified Observer's Assessment of Alertness/Sedation Scale (MOAA/S), Sleep Quality Scale (SQS)). Part 1 Exploratory Endpoints: Changes from Baseline in SSS, MOAA/S, and/or SQS.
Part 3 Exploratory Objective: to characterize the PD effects, and the PK/PD relationships of Compound 1 on select effects following multiple oral doses of Compound 1. Part 3 Exploratory Endpoints: changes from baseline in qEEG, SSS, MOAA/S, the SQS, Cogstate, Body Sway, and video-oculography (VOG) assessment.
Participants were assessed using metrics as outlined below. The SSS is a one item self-report questionnaire that measures and quantifies progressive steps in the level of sleepiness throughout the day. Subjects select one of seven statements that best represents their level of perceived sleepiness at a given timepoint, as depicted in Table 7.
The MOAA/S is a clinical outcome assessment that measures a subject's level of alertness/sedation as determined by a rater; in its modified form, it uses only the responsiveness component of the original Observer's Assessment of Alertness/Sedation Scale. Responsiveness, as a measure of sedation, was assessed and scored on a scale of 0 to 5 as outlined in Table 8.

[2] = Sleep Quality Scale (SQS); conditions: all cohorts
Method: The scale was administered in the morning, and subjects are asked to rate their sleep quality of the past 7 days, ranging from terrible (score of 0), poor (scores of 1-3), fair (scores of 4-6), good (scores of 7-9), and excellent (score of 10).

[3] = Columbia-Suicide Severity Rating Scale (C-SSRS); conditions: parts 1-3
Method: The Columbia-Suicide Severity Rating Scale (C-SSRS) is a validated tool designed to quantify the severity of suicidal ideation and behavior. This scale was administered by individuals who have received training in its administration, as described in further detail at https://cssrs.columbia.edu/the-columbia-scale-c-ssrs/about-the-scale/.

[4] = Body sway (posturography); conditions: MAD
Method: Body Sway is assessed as a measure of a subject's slight postural movements in order to retain balance either statically in a neutral position or dynamically while in motion. Body Sway is typically measured by total displacement of the center of body mass relative to the base of support over time. Posturography is an objective, sensitive, reliable, and non-invasive method designed to assess the effects of drugs and alcohol on body sway and vigilance. Body sway is recorded using a computerized force-platform. Using specific positioners, bare feet subjects are asked to stand still and motionless, looking at a cue placed in front of them. Measurement of body sway (one minute with eyes open and one minute with eyes closed) is recorded as recommended by the International Society of Postuography. The length and area of the postural oscillations are then calculated.

[5] = Quantitative electroencephalogram (qEEG)
Excerpt: Quantitative Electroencephalogram (qEEG or EEG) has gained prominence as a useful biomarker in human drug studies as it is continuous, objective, repeatable, sensitive, reproducible, non-invasive and highly translatable from nonclinical data. EEG serves as biomarker in this protocol and provides PD outcomes for PK-PD modeling, thus enabling a more thorough understanding of the pharmacological effects of Compound 1. In addition, EEG can provide useful safety information regarding detection of epileptiform activity and any pro-convulsive effects of the study drug. Data outputs included spectral analysis and flat brain mapping, among others.
EEG was collected at multiple time points before and after dosing on Day 1 and Day 7 of the MAD portion of the study except for Cohort 8. For a given recording, the subject was fitted with a cap containing the electrodes. For each session, recordings were collected for approximately 15 minutes while subjects are sitting quietly, and include portions with eyes open and eyes closed.
The qEEG is a quantitative measurement of brain oscillations considering different frequency levels. Resting-state brain activity was recorded in 2 conditions (eyes closed and eyes open). For each electrode, a spectral analysis of the EEG signal was carried out to derive absolute and relative powers in standard frequency bands. […]

[6] = TSST study safety and tolerability (Example 2)
Method: A double-blind, placebo-controlled study was performed in 80 healthy participants to determine the effects of a single dose of Compound 1 in a validated and standardized behavioral challenge, the Trier Social Stress Test (TSST). The TSST is a reliable behavioral model used to examine the neurobiological response to acute stress in humans, whereby an acute stress (and associated acute stress response) is induced under experimentally controlled conditions. The TSST induces stress through public speaking. It incorporates social evaluation and unpredictability, by obliging the person to speak in front of an unresponsive audience and is further followed by a surprise mental arithmetic test. The TSST combines elements of a social-evaluative threat and uncontrollability to produce a consistent and robust physiological and psychological stress response in humans. On the day of the study, the participant was tasked with a speech prompt, for which they had 3 minutes to prepare. The participant was then required to present the speech for 5 minutes to a panel while under the pretense of being recorded. Following the speech, participants were given an unexpected mental arithmetic task. The TSST is more fully described in Allen A et al., Neurobiol. Stress (2017), February; 6:113-126.
The study included a validation cohort and a randomized cohort. The validation cohort (n=10) was given placebo for the purposes of validating the TSST and study endpoints. The randomized cohort […] were randomized and stratified by sex to placebo or 375 mg of Compound 1 in a 1:1 ratio. The cohorts are described in Table 14. An overview of the TSST study design is also depicted in FIG. 4C.
The objective of the study was to evaluate the efficacy of Compound 1 vs. placebo in blunting the response to endpoints measured during and after the TSST procedure. The primary efficacy endpoint was the change from baseline (before TSST procedure) to the peak (maximum change) in salivary cortisol levels as measured before, during, and after the TSST procedure. The primary outcome for determining this was salivary cortisol levels. The key secondary outcomes were be the Numerical Rating Scale (NRS) for stress, anxiety, fear, embarrassment, and excitement. Additional secondary outcomes were the State Trait Anxiety Index (STAI), and blood pressure. Safety and tolerability (i.e., incidence, severity, and duration of treatment-emergent adverse events (TEAEs), serious adverse events (SAEs), and incidence of other clinically relevant signs) were also monitored. Prior to the TSST, a post-dose sample was collected for pharmacokinetic analysis.

Compound: CCCCCCCC(=O)OCC(COC(=O)CCCCCCC)OC(=O)CC(C)CC(=O)OCOC(=O)O[C@@H]1CC[C@@]2(C)[C@@H](CC[C@@H]3[C@@H]2CC[C@]2(C)[C@@H](C(C)=O)CC[C@@H]32)C1 (stereo partly shown) [Compound 1]
- change from baseline in SSS and MOAA/S ([1]; Cohort 6 (Part 3), 500 mg, compared to lower doses): greater magnitude of effect from baseline
- change from baseline in SSS and MOAA/S score ([1]; Cohorts 1, 2, 2b (Part 1), single doses): dose-dependent increase from baseline in the Stanford Sleepiness Scale (SSS) and a decrease from baseline in the MOAA/S score
- change from baseline in SSS and MOAA/S ([1]; Cohorts 4, 5, 7, 8 (Part 3), 250 mg and 375 mg, early days of dosing): low magnitude of change from baseline
- time of maximum changes in SSS and MOAA/S ([1]; Part 1): 3-5 hours post-dose
- time of return to baseline levels of SSS and MOAA/S ([1]; Part 1, all treatment groups): ≤ 12 hours post-dose
- difference in mean change from baseline between fed (HF or LF) and fasted states ([1]; cohort 3, 140 mg): no apparent difference
- sleep quality as measured by SQS [2]: no meaningful improvements or worsening
- suicidal ideation or suicidal behavior [3]: No subjects across all parts (1-3) reported any suicidal ideation or suicidal behavior
- effects on body sway ([4]; day 1): Slight effects
- effects on body sway ([4]; day 7): absent
- qEEG power for the β-band (β1, β2, β3) ([5]; cohorts 4 (250 mg), 5 (375 mg), 6 (500 mg)): dose-dependent increase in power
- time of maximum qEEG effects following administration ([5]; day 1 and day 7): approximately 4 hours
- tolerability in the TSST study ([6]; single 375 mg dose): well tolerated
- TEAE dizziness ([6]; single 375 mg, placebo 3%): 20%
- TEAE headache ([6]; single 375 mg, placebo 7.7%): 7.3%
- TEAE somnolence ([6]; single 375 mg, placebo 13%): 29%
